For this test, the target named is delta opioid receptor (DOR), murine, wild-type (Mus musculus, UniProt P32300). The experiment in a line: [3H]naltrindole radioligand binding. The settings on record: labelled compound; HEK293 DOR clone; no affinity constant printed.
Chain of delta opioid receptor (DOR), murine, wild-type (P32300 whole entry): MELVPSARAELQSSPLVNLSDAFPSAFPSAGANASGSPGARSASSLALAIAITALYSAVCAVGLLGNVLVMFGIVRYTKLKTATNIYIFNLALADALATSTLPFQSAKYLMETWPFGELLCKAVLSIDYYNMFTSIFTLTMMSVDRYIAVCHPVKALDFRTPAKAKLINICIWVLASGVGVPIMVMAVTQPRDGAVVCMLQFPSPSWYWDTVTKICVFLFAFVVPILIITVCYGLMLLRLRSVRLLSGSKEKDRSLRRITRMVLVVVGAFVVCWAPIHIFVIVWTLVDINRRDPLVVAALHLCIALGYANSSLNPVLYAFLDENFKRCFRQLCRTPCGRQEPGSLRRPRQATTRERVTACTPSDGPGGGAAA

In the case of `Oc1ccc2c3c1O[C@H]1c4[nH]c5ccccc5c4C[C@@]4(O)[C@@H](C2)N(CC2CC2)CC[C@]314` [[3H]naltrindole], the “[3H]naltrindole radioligand binding” value was “Receptor expression levels in DOR clones was assessed by means of [^3H]Naltrindole binding”.

For the origin of these results see PMC3823043 (Journal of Cellular and Molecular Medicine, 2008).
